Consider one molecule from patent publication US8883841B2, “Oncogenic ras-specific cytotoxic compound and methods of use thereof” (The Board of Regents of the University of Texas System, priority 2005, dated 2014).

Some results are limits rather than exact numbers.

One assay deals with H2087. In words: Cell viability, H2087 lung cancer cells. It counts as cell-based, human.

Turning to `O=Cc1cn(Cc2ccc(Cl)cc2)c2ccccc12` [Oncrasin K001, 1H-Indole-3-carboxaldehyde, 1-[(4-chlorophenyl)methyl]-(9CI)], the “IC50 (−LogM)” value is reported as 6.6 −LogM with H460 cells (H460, Lung) and >4.5 −LogM in the assay with H2087 (H2087, Lung). Also, the “concentration that effectively kills H460 cells” value in the assay on H460 cells (K-ras mutant lung cancer cells) was 1 µM. For the same molecule, in the assay on H460 cells (Table 1, value is the negative log10 of mol/L), the “IC50 in H460 cells” value turned out to be 6.6. Also, in the assay on H460 cells (lung cancer cell line), the “effect on H460 cells” value is “highly effective”. For the same molecule, the half-maximal inhibitory concentration (IC50) in the assay with H460 cells (read-out: IC50, H460 cells, K-Ras Q61H) is 250 nM. Further, the “effect on H2087 cells” value in the assay on H2087 (mutant N-Ras) is listed as “minimal effect”.
